Series [1] in a line: Cytotoxicity assay for C6 cells (CellTiter-Blue). The class given is cell-based. Particulars: rat, C6 glial cells, viability, mean ± SD. The procedure:
(§1) A viability assay was performed to evaluate the inhibitory activity of the tested compounds by determining their IC50 values against N. fowleri, using miltefosine as a reference drug. To assess the selectivity of the tested compounds relative to miltefosine, cytotoxic values that reduced the viability of C6 glial cells by 50% were established.
(§2) N. fowleri Carter NF69 strain (ATCC 30215; American Type Culture Collection, Manassas, VA, USA) was used. Amoeba trophozoites were cultured and maintained in Nelson’s medium containing 5% foetal bovine serum (FBS; Gibco, Grand Island, NY, USA) and 1% penicillin/streptomycin (P/S; Gibco, Grand Island, NY, USA) at 37 °C [56]. C6 rat glial cells (C6 cells; ATCC CCL-107) were cultured in Dulbecco’s Modified Eagle’s Medium (DMEM; Gibco, Grand Island, NY, USA) supplemented with 10% FBS (Gibco, Grand Island, NY, USA) and 1% P/S (Gibco, Grand Island, NY, USA) at 37 °C in a humidified incubator under 5% CO2 atmosphere.
(§3) The potential cytotoxicity of tested compounds and miltefosine in C6 cells was analysed. The cells were seeded in a 96-well microplate (Thermo Fisher Scientific; 2 × 10^4 cells/well), respectively, and incubated overnight until 80% confluent. Serially diluted tested compounds and miltefosine were treated to the cells as described above. Morphological changes of the cells were observed by microscopic examination. Cell viability was determined using the CellTiter-Blue® Cell viability assay (Promega, […], USA). The cytotoxic concentrations 50 (CC50) of tested compounds and miltefosine were calculated using GraphPad Prism 9.1.0 software (GraphPad Software, San Diego, CA, USA). The […] (SI) was determined by the ratio between CC50 and IC50. Cells treated with 0.1% DMSO, which was confirmed not to alter the morphology of the cells by microscopic examination, were used as controls with 100% cell viability.
Background: Alamar Blue is a resazurin reagent that responds to reducing activity.

The subject of series [2] is N. fowleri trophozoites. The series can be described thus: JC-1 mitochondrial membrane potential assay. The class given is cell-based, Naegleria fowleri. Particulars: at IC90, 48 h. As for the experimental part:
To determine whether the apoptotic death of N. fowleri induced by compounds 2a, 3b and 3d is associated with mitochondrial dysfunction, the mitochondrial membrane potential (ΔΨm) was assessed using a JC-1 assay. The potential difference across the membrane in functioning mitochondria leads to the accumulation of cationic lipophilic fluorescent JC-1 molecules, forming red fluorescence (J-aggregate). Mitochondrial dysfunction results in the loss of mitochondrial membrane potential, leading to the transition from J-aggregates to monomers (green fluorescence). […] The absence of green and strong red fluorescence in untreated amoebae indicates healthy, functional mitochondria maintaining their ΔΨm. The shift to predominantly green fluorescence upon treatment with miltefosine, as well as compounds 2a, 3b and 3d, signifies a loss of ΔΨm, a critical early event in the intrinsic apoptotic pathway (Figure 7). Disruption of ΔΨm leads to the release of pro-apoptotic factors from the mitochondria, triggering the caspase cascade and, ultimately cell death. This observation aligns with the previous finding of DNA fragmentation and membrane compromise, further solidifying the apoptotic mechanism of these compounds.
Figure 7 Disruption of mitochondrial functions in N. fowleri. Mitochondrial membrane potential changes. Aggregate form (RFP channel, Ex/Em = 550/650 nm), implying healthy mitochondria, was found in N. fowleri trophozoites treated with 0.1% DMSO (NC), while monomer (GFP channel, Ex/Em = 490/525 nm) indicating the collapse of mitochondrial membrane potential was increased in treated amoebae. Miltefosine (MF) was included as a positive control drug. Images were representatives of the cell population in three individual experiments. Size bar: 10 µm.
The electrochemical gradient changes across the mitochondrial membrane in N. fowleri upon treatment of compounds 2a, 3b and 3d were measured using the JC-1 Mitochondrial Membrane Potential Assay Kit (Abcam, Cambridge, UK). The amoeba trophozoites (5 × 10^4 cells/well) were seeded in a 96-well black/clear bottom plate and incubated with compounds 2a, 3b or 3d (IC90) at 37 °C for 48 h. The JC-1 assay was conducted as described previously. The amoebae treated with Nelson’s medium containing 0.1% DMSO and miltefosine (IC90) were used as negative and positive controls, respectively.

Series [3] relates to C6 glial cells. The series can be described thus: Cytotoxicity assay for C6 cells (CellTiter-Blue). Format: cell-based. To be noted: C6 rat glial cells, viability; mean ± SD. As for the experimental part:
as §1, §2, §3

The record followed here is publication PMC12298883, “Discovery of Cyclopentane-Based Phospholipids as Miltefosine Analogs with Superior Potency and Enhanced Selectivity Against Naegleria fowleri” (Pharmaceuticals, 2025).

By CC50 is commonly meant the concentration at which the toxic effect on the cells reaches its halfway point. A lower CC50 goes with greater toxicity to the cells. Take `CCCCCCCCCCCCCO[C@@H]1CCC[C@H]1COP(=O)([O-])OCC[N+](C)(C)C` [Compound 2a]: half-maximal cytotoxicity in series [1] (CC50) was put at 316.6 ± 2.1 µM. In series [2], the “mitochondrial membrane potential (ΔΨm), JC-1” value is reported as “loss of ΔΨm”.
On the same counts, the results for `CCCCCCCCCCCCCOC[C@@H]1CCC[C@H]1OP(=O)([O-])OCC[N+](C)(C)C` [Compound 3b] are 159.5 ± 0.87 µM and “loss of ΔΨm”.
In series [1], `CCCCCCCCCCCCCCCCCCCCCCOC[C@@H]1CCC[C@H]1OP(=O)([O-])OCC[N+](C)(C)C` [Compound 3d] had a CC50 of 84.9 ± 1.29 µM. Also, the “mitochondrial membrane potential (ΔΨm), JC-1” value in series [2] is listed as “loss of ΔΨm”.
With `CCCCCCCCCCCCCCCCOP(=O)([O-])OCC[N+](C)(C)C` [Miltefosine], the half-maximal cytotoxic concentration (CC50) in series [3] amounted to 158.9 ± 1.49 µM; in series [1], 157.8 ± 1.49 µM. Besides, the “mitochondrial membrane potential (ΔΨm), JC-1” value in series [2] is “loss of ΔΨm”.
